Laboratory results published in the Kinase Knowledgebase extract (Sharma et al. 2016).
Values joined by “and” are separate entries in the source; they are usually repeats but may differ in a detail not shown here. Equal values may be shown once.

Tests used:
EGFR (human) [1] = biological target: EGFR (human) (UniProt P00533); conditions: a431
EGFR (human) [2] = biological target: EGFR (human) (UniProt P00533); conditions: dher14
EGFR (human) [3] = biological target: EGFR (human) (UniProt P00533); conditions: A431

EGFR (human), sequence (P00533 whole entry, looked up): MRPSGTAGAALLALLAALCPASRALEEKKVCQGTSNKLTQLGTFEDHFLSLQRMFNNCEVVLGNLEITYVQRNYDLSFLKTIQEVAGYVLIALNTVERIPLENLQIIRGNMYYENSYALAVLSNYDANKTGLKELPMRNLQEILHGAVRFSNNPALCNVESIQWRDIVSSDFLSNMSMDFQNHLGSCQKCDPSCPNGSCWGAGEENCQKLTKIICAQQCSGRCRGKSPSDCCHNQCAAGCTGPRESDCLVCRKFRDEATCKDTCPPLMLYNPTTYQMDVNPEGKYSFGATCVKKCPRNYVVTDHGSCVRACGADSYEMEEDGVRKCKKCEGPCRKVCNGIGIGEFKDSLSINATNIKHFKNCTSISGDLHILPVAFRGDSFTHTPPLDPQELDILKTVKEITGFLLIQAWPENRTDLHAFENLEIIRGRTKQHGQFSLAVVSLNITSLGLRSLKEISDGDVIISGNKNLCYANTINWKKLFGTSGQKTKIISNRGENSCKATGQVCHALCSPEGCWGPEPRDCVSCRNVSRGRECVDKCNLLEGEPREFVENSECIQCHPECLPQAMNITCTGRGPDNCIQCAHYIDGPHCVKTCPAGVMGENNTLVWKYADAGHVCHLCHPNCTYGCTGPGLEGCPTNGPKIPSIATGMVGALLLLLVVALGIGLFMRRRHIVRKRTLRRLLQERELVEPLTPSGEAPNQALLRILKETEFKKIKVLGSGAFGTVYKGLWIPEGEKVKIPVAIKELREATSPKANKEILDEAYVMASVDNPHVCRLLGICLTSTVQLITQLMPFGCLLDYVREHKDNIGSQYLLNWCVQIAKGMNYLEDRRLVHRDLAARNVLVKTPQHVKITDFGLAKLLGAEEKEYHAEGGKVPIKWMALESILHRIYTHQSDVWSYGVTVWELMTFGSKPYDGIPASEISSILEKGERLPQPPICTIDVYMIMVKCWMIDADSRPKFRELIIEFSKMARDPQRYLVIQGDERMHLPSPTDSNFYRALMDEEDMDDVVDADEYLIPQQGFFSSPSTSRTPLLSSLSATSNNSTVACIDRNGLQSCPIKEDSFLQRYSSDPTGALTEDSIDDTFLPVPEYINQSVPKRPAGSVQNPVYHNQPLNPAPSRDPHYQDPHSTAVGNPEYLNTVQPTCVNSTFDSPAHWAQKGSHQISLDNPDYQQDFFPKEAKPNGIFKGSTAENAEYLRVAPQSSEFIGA

IC50 (EGFR (human) [1]) | IC50 (EGFR (human) [2]) [nM] | IC50 (EGFR (human) [3]) [nM] | Structure (SMILES)
3 to 5 nM | – | – | COc1cc2ncnc(Nc3cc(Cl)c(Cl)cc3F)c2cc1OC
1000 to 10000 nM | > 250 | – | COCC(=O)Nc1ccc2ncnc(Nc3cc(Cl)c(Cl)cc3F)c2c1
6.7 to 20 nM | – | – | C=CC(=O)Nc1ccc2ncnc(Nc3cc(Cl)c(Cl)cc3F)c2c1
5 to 25 nM and 25 to 50 nM | – | – | O=C(CCl)Nc1ccc2ncnc(Nc3cc(Cl)c(Cl)cc3F)c2c1

The remaining lines, values behind:

Structure (SMILES) | IC50 (EGFR (human) [1]) | IC50 (EGFR (human) [2]) [nM] | IC50 (EGFR (human) [3]) [nM]
COCC(=O)Nc1ccc2ncnc(Nc3cccc(I)c3)c2c1 | 1000 to 5000 nM | – | –
C=CC(=O)Nc1cc2c(Nc3cccc(Br)c3)ncnc2cc1N1CCN(C)CC1 | 50 to 250 nM | – | 500 to 13000
